The values below come from patent publication US9290451B2 (Hoffmann-La Roche Inc., priority 2011, dated 2016).

The EC50 is the midpoint of the concentration-response curve.

Structures are written as SMILES. Read-outs that look alike come from different tables or passages of the source.

The target in experiment [1] is human CB2 receptors (Homo sapiens (Human), UniProt P34972). As to the kind of experiment: cAMP assay, CHO cells expressing human CB2 receptors. The format is cell-based. The procedure:
(§1) CHO cells expressing human CB1 or CB2 receptors are seeded 17-24 hours prior to the experiment 50.000 cells per well in a black 96 well plate with flat clear bottom (Corning Costar #3904) in DMEM (Invitrogen No. 31331), 1×HT supplement, with 10% fetal calf serum and incubated at 5% CO2 and 37° C. in a humidified incubator. The growth medium was exchanged with Krebs Ringer Bicarbonate buffer with 1 mM IBMX and incubated at 30° C. for 30 min Compounds were added to a final assay volume of 100 μl and incubated for 30 min at 30° C. Using the cAMP-Nano-TRF detection kit the assay (Roche Diagnostics) was stopped by the addition of 50 μl lysis reagent (Tris, NaCl, 1.5% Triton X100, 2.5% NP40, 10% NaN3) and 50 μl detection solutions (20 μM mAb Alexa700-cAMP 1:1, and 48 μM Ruthenium-2-AHA-cAMP) and shaken for 2 h at room temperature. The time-resolved energy transfer is measured by a TRF reader (Evotec Technologies GmbH), equipped with a ND:YAG laser as excitation source. The plate is measured twice with the excitation at 355 nm and at the emission with a delay of 100 ns and a gate of 100 ns, total exposure time 10 s at 730 (bandwidth 30 nm) or 645 nm (bandwidth 75 nm), respectively. The FRET signal is calculated as follows: FRET=T730-Alexa730-P(T645-B645) with P═Ru730-B730/Ru645-B645, where T730 is the test well measured at […], T645 is the test well measured at 645 nm, B730 and B645 are the buffer controls at 730 nm and 645 nm, respectively. cAMP content is determined from the function of a standard curve spanning from 10 μM to 0.13 nM cAMP.
(§2) EC50 values were determined using Activity Base analysis (ID Business Solution, Limited). The EC50 values for a wide range of cannabinoid agonists generated from this assay for reference compounds were in agreement with the values published in the scientific literature.
A general note: Changes in cAMP serve as a functional read-out for many G protein-coupled receptors.

Experiment [2] addresses human CB1 receptors (Homo sapiens (Human), UniProt P21554). As to the kind of experiment: cAMP assay, CHO cells expressing human CB1 receptors. Format: cell-based. The following applies: CHO cells expressing human CB1, cAMP; read-out: human CB1 EC50. The procedure:
as §1, §2

Setting [3] is: CHO cells expressing human CB2, cAMP, read-out: human CB2 EC50.

human CB1 receptors, sequence (P21554 whole entry): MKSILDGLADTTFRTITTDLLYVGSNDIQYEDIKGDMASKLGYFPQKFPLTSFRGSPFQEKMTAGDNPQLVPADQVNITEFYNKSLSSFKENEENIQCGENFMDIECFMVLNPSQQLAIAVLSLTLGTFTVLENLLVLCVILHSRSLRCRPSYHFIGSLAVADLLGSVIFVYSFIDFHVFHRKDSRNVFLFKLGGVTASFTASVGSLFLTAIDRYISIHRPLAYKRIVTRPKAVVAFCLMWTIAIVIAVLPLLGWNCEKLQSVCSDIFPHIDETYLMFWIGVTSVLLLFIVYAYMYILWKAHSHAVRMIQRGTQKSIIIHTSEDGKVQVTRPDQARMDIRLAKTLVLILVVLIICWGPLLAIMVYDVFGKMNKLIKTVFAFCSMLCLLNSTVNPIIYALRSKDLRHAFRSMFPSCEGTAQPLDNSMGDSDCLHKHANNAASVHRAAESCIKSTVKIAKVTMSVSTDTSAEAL
human CB2 receptors, sequence (P34972 whole entry): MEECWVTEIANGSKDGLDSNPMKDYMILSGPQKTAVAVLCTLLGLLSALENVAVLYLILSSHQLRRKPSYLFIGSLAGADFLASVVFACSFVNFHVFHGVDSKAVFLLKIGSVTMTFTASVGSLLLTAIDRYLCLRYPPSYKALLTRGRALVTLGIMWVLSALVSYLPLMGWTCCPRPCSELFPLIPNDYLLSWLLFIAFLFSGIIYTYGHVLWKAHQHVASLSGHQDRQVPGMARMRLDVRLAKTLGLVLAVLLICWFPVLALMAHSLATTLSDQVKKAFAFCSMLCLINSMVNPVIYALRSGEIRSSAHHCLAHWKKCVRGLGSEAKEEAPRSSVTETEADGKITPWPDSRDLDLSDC

Turning to `Cc1nc(C(NC(=O)c2cccc(-c3ccc(F)c(Cl)c3)n2)C2CC2)no1` (racemic) [Example 232, 6-(3-Chloro-4-fluoro-phenyl)-pyridine-2-carboxylic acid [cyclopropyl-(5-methyl-[1,2,4]oxadiazol-3-yl)-methyl]-amide], the half-maximal effective concentration (EC50) in experiment [1] (setting [3]) came out at 15 nM; in experiment [2], 1630 nM.
In turn, `O=C(N[C@@H](CC1CC1)C(=O)NN1CCC(O)C1)c1ccc(C2CC2)c(OCC2CC2)n1` (single isomer, unassigned; (+)) [Example 379] yielded an EC50 in experiment [1] of 26.4 nM.
With `O=C(N[C@@H](CC1CC1)C(=O)NN1CCC(O)C1)c1ccc(C2CC2)c(OCC2CC2)n1` (single isomer, unassigned; (-)) [Example 380], the EC50 is 584 nM in experiment [1] (setting [3]) and greater than 10000 nM in experiment [2].
Consider `COC(=O)C(C)(C)NC(=O)c1cccc(-c2cccc(Cl)c2)n1` [Example 1, Methyl 2-(6-(3-chlorophenyl)picolinamido)-2-methylpropanoate], for which the EC50 in experiment [1] (setting [3]) is 68.5 nM.
For `COC(=O)C(C)(C)NC(=O)c1cccc(-c2ccccc2Cl)n1` [Example 2, Methyl 2-(6-(2-chlorophenyl)picolinamido)-2-methylpropanoate], in experiment [1] (setting [3]), the 50% effective concentration (EC50) worked out at 57.7 nM.
In the case of `Cc1nc(C(C)(C)NC(=O)c2cccc(-c3ccc(Cl)cc3)n2)no1` [Example 3, 6-(4-Chloro-phenyl)-pyridine-2-carboxylic acid [1-methyl-1-(5-methyl-[1,2,4]oxadiazol-3-yl)-ethyl]-amide], the EC50 in experiment [1] (setting [3]) is 341 nM; in experiment [2], greater than 10000 nM.
Take `COC(=O)C(C)(C)NC(=O)c1ccc(C)c(OCC(F)(F)F)n1` [Example 4, Methyl 2-methyl-2-(5-methyl-6-(2,2,2-trifluoroethoxy)picolinamido)propanoate]: the half-maximal effective concentration (EC50) in experiment [1] (setting [3]) is 77.2 nM.
On the same count and under the same terms, next, `COC(=O)C(C)(C)NC(=O)c1ccc(C2CC2)c(Nc2ccc(Cl)cc2Cl)n1` [Example 5, Methyl 2-(5-cyclopropyl-6-(2,4-dichlorophenylamino)picolinamido)-2-methylpropanoate]: 434 nM; `COC(=O)C(C)(C)NC(=O)c1ccc(C)c(Nc2ccc(Cl)cc2Cl)n1` [Example 6, Methyl 2-(6-(2,4-dichlorophenylamino)-5-methylpicolinamido)-2-methylpropanoate]: 376 nM; `COC(=O)C(C)(C)NC(=O)c1cccc(C2CCCCC2)n1` [Example 7, 2-[(6-Cyclohexyl-pyridine-2-carbonyl)-amino]-2-methyl-propionic acid methyl ester]: 32.1 nM.
As to `CC(C)(NC(=O)c1cccc(-c2cccc(Cl)c2)n1)c1ncco1` [Example 8, 6-(3-Chloro-phenyl)-pyridine-2-carboxylic acid (1-methyl-1-oxazol-2-yl-ethyl)-amide], the EC50 in experiment [1] (setting [3]) was 99.6 nM; in experiment [2], greater than 10000 nM.
As for `COC(=O)C(C)(C)NC(=O)c1ccc(C2CCOCC2)c(OCC2CC2)n1` [Example 9, 2-{[6-Cyclopropylmethoxy-5-(tetrahydro-pyran-4-yl)-pyridine-2-carbonyl]-amino}-2-methyl-propionic acid methyl ester], the EC50 in experiment [1] (setting [3]) is 55.8 nM; in experiment [2] it was greater than 10000 nM.
The matching figures for `Cc1nc(C(C)(C)NC(=O)c2ccc(C3CCOCC3)c(OCC3CC3)n2)no1` [Example 10, 6-Cyclopropylmethoxy-5-(tetrahydro-pyran-4-yl)-pyridine-2-carboxylic acid [1-methyl-1-(5-methyl-[1,2,4]oxadiazol-3-yl)-ethyl]-amide]: 88.3 nM and greater than 10000 nM.
The matching figures for `O=C(NN1CCCCC1)c1cccc(-c2cccc(Cl)c2)n1` [Example 11, 6-(3-Chloro-phenyl)-pyridine-2-carboxylic acid piperidin-1-ylamide]: 63.6 nM and greater than 10000 nM.
The matching figures for `CC(C)(NC(=O)c1cccc(-c2cccc(Cl)c2)n1)c1nccs1` [Example 12, 6-(3-Chloro-phenyl)-pyridine-2-carboxylic acid (1-methyl-1-thiazol-2-yl-ethyl)-amide]: 105 nM and greater than 10000 nM.
`COC(=O)C(C)(C)NC(=O)c1ccc(-c2cc[nH]n2)c(OCC2CC2)n1` [Example 13, 2-{[6-Cyclopropylmethoxy-5-(1H-pyrazol-3-yl)-pyridine-2-carbonyl]-amino}-2-methyl-propionic acid methyl ester]: the half-maximal effective concentration (EC50) in experiment [1] (setting [3]) is 426 nM; in experiment [2], greater than 10000 nM.
The matching figures for `CC(C)C[C@@H](CO)NC(=O)c1ccc(N2CCCC2)c(OCC2CC2)n1` [Example 14, 6-Cyclopropylmethoxy-5-pyrrolidin-1-yl-pyridine-2-carboxylic acid ((S)-1-hydroxymethyl-3-methyl-butyl)-amide]: 3 nM and greater than 10000 nM.
The like results for `O=C(c1ccc(N2CCCC2)c(OCC2CC2)n1)N1CCS(=O)(=O)CC1` [Example 15] were, in that order, 95.9 nM and greater than 10000 nM.
The matching figures for `O=C(c1ccc(N2CCCC2)c(OCC2CC2)n1)N1CCSCC1` [Example 16, (6-Cyclopropylmethoxy-5-pyrrolidin-1-yl-pyridin-2-yl)-thiomorpholin-4-yl-methanone]: 16.6 nM and greater than 10000 nM.
On to `CC(C)(NC(=O)c1cccc(-c2cccc(Cl)c2)n1)c1nnco1` [Example 17, 6-(3-Chloro-phenyl)-pyridine-2-carboxylic acid (1-methyl-1-[1,3,4]oxadiazol-2-yl-ethyl)-amide], for which the EC50 in experiment [1] (setting [3]) is 566 nM; in experiment [2], greater than 10000 nM.
The matching figures for `O=C(NC1CCCCC1)c1cccc(-c2cccc(Cl)c2)n1` [Example 18, 6-(3-Chloro-phenyl)-pyridine-2-carboxylic acid cyclohexylamide]: 97 nM and greater than 10000 nM.
Consider `O=C(Nc1ccccc1)c1cccc(-c2cccc(Cl)c2)n1` [Example 19, 6-(3-Chloro-phenyl)-pyridine-2-carboxylic acid phenylamide], for which the values for the EC50 in experiment [1] (setting [3]) and in experiment [2] were 415 nM and greater than 10000 nM, respectively.
The matching figures for `O=C(Nc1ccccn1)c1cccc(-c2cccc(Cl)c2)n1` [Example 20, 6-(3-Chloro-phenyl)-pyridine-2-carboxylic acid pyridin-2-ylamide]: 262 nM and greater than 10000 nM.
Regarding `O=C(NC1CCOCC1)c1cccc(-c2cccc(Cl)c2)n1` [Example 21, 6-(3-Chloro-phenyl)-pyridine-2-carboxylic acid (tetrahydro-pyran-4-yl)-amide], the EC50 was 220 nM in experiment [1] (setting [3]) and greater than 10000 nM in experiment [2].
The matching figures for `Cc1nsc(C(C)(C)NC(=O)c2cccc(-c3cccc(Cl)c3)n2)n1` [Example 22, 6-(3-Chloro-phenyl)-pyridine-2-carboxylic acid [1-methyl-1-(3-methyl-[1,2,4]thiadiazol-5-yl)-ethyl]-amide]: 635 nM and greater than 10000 nM.
The matching figures for `CCC(CC)(NC(=O)c1cccc(-c2cccc(Cl)c2)n1)C(=O)N(C)C` [Example 23, 6-(3-Chloro-phenyl)-pyridine-2-carboxylic acid (1-dimethylcarbamoyl-1-ethyl-propyl)-amide]: 48.2 nM and greater than 10000 nM.
`O=C(NN1CCCCC1)c1cccc(C2CCCCC2)n1` [Example 24, 6-Cyclohexyl-pyridine-2-carboxylic acid piperidin-1-ylamide]: the EC50 was 15.6 nM in experiment [1] (setting [3]) and greater than 10000 nM in experiment [2].
